Reference: ChEMBL document CHEMBL5579887, “Structure-Activity Relationship Studies of Substituted 2-Phenyl-1,2,4-triazine-3,5(2H,4H)-dione Analogues: Development of Potent eEF2K Degraders against Triple-Negative Breast Cancer” (J Med Chem, 2024)
≈ marks a conversion by molar mass, not a printed value.

Assays:
MDA-MB-231 [1] = assay: cells; settings: Homo sapiens, MDA-MB-231, 72 h
Description: Antitumor activity against human MDA-MB-231 cells assessed as inhibition of cell viability by measuring inhibition rate measured after 72 hrs by CCK-8 assay relative to control

MDA-MB-231 [2] = assay: cells; settings: Homo sapiens, MDA-MB-231, 72 h, read-out: INH
Description: Antitumor activity against human MDA-MB-231 cells assessed as inhibition of cell viability by measuring inhibition rate at 20 uM measured after 72 hrs by CCK-8 assay relative to control

[3] = Kinetic solubility of the compound in PBS buffer at pH 7.4 measured by HPLC analysis
MDA-MB-231 [4] = assay: cells; settings: Homo sapiens, MDA-MB-231, 72 h, read-out: INH; remark: listed apart in the source
Description: Antitumor activity against human MDA-MB-231 cells assessed as inhibition of cell viability by measuring inhibition rate at 1 uM measured after 72 hrs by CCK-8 assay relative to control

| SMILES | IC50 (MDA-MB-231 [1]) [nM] | inhibition at 20 µM (MDA-MB-231 [2]) [%] | solubility kinetic [3] [µM] | inhibition at 1 µM (MDA-MB-231 [4]) [%] |
| --- | --- | --- | --- | --- |
| Cc1ccc(-n2nc(C(=O)N3CCCN(C)CC3)c(=O)n(Cc3ccccc3)c2=O)cc1C | > 1000 | 97.2 |  |  |
| CCOC(=O)C1CCCN(C(=O)c2nn(-c3ccc(C)c(C)c3)c(=O)n(Cc3cccc(F)c3)c2=O)C1 (centres undefined) | 131 | 98.4 | 90 (≈ 45.8 µg/mL) | 87.6 |
| O=C(/C=C/c1cccc(C(F)(F)F)c1)c1cc2ccccc2oc1=O | ~1000 |  |  |  |
| Cc1ccc(-n2nc(C#N)c(=O)n(Cc3cccnc3)c2=O)cc1C |  | 34.8 | 106 (≈ 35.3 µg/mL) |  |
| Cc1ccc(-n2nc(C#N)c(=O)n(Cc3ccncc3)c2=O)cc1C |  | 0.27 |  |  |
| Cc1ccc(-n2nc(C(=O)NCCN3CCOCC3)c(=O)n(Cc3ccccc3)c2=O)cc1C |  | 60.9 |  |  |
| Cc1ccc(-n2nc(C(=O)N3CC3)c(=O)n(Cc3ccccc3)c2=O)cc1C |  | 72.7 | 47 (≈ 17.7 µg/mL) |  |
| Cc1ccc(-n2nc(C(=O)Nc3ccc(CN4CCOCC4)cc3)c(=O)n(Cc3ccccc3)c2=O)cc1C |  | 52.8 | 15 (≈ 7.88 µg/mL) |  |
| COc1ccccc1CNC(=O)c1nn(-c2ccc(C)c(C)c2)c(=O)n(Cc2ccccc2)c1=O |  | 17.5 | 25 (≈ 11.8 µg/mL) |  |
| Cc1ccc(-n2nc(C(=O)N3CCN(C(=O)N(C)C)CC3)c(=O)n(Cc3cccc(F)c3)c2=O)cc1C |  | 12.8 |  |  |
| Cc1ccc(-n2nc(C(=O)N3CCC[C@H](NC(=O)OC(C)(C)C)C3)c(=O)n(Cc3cccc(F)c3)c2=O)cc1C |  | 98 |  | 8.56 |
| Cc1ccc(-n2nc(C(=O)N(C)C)c(=O)n(Cc3ccccc3)c2=O)cc1C | 867 | 89.8 | 56 (≈ 21.2 µg/mL) | 64 |
| Cc1ccc(-n2nc(C(=O)N3CCN(C(=O)OC(C)(C)C)CC3)c(=O)n(Cc3cccc(F)c3)c2=O)cc1C |  | 95 |  |  |
| Cc1ccc(-n2nc(C(=O)N3CCCNCC3)c(=O)n(Cc3ccccc3)c2=O)cc1C |  | 53.6 |  |  |
| Cc1ccc(-n2nc(C(=O)N3CCC(F)(F)CC3)c(=O)n(Cc3cccc(F)c3)c2=O)cc1C |  | 84.3 |  | 58.6 |
| Cc1ccc(-n2nc(C(=O)N3CCCCC3)c(=O)n(Cc3cccc(F)c3)c2=O)cc1C | 168 | 99.6 | 17 (≈ 7.42 µg/mL) | 93.3 |
| Cc1ccc(-n2nc(C(=O)N3CCC(C(=O)OC(C)(C)C)CC3)c(=O)n(Cc3cccc(F)c3)c2=O)cc1C | 279 | 90.4 | 19 (≈ 10.2 µg/mL) | 90.7 |
| Cc1ccc(-n2nc(C(=O)N3CCC(F)(F)CC3)c(=O)n(Cc3ccccc3)c2=O)cc1C | 484 | 96.8 | 36 (≈ 16.4 µg/mL) | 61.5 |
| Cc1ccc(-n2nc(C(=O)N3CCC3)c(=O)n(Cc3ccccc3)c2=O)cc1C |  | 98.7 |  | 17.7 |
| CCN1CCN(C(=O)c2nn(-c3ccc(C)c(C)c3)c(=O)n(Cc3ccccc3)c2=O)CC1 | > 1000 | 93.3 |  |  |
| Cc1ccc(-n2nc(C#N)c(=O)n(Cc3ccccn3)c2=O)cc1C |  | -4.94 |  |  |
| Cc1ccc(-n2nc(C#N)c(=O)n(Cc3cccc(C(F)(F)F)c3)c2=O)cc1C |  | 92.9 | 67 (≈ 26.8 µg/mL) | 19.3 |
| Cc1ccc(-n2nc(C(=O)N3CCN(C(=O)C4CC4)CC3)c(=O)n(Cc3cccc(F)c3)c2=O)cc1C |  | 22.2 |  |  |
| Cc1ccc(-n2nc(C(=O)N3CCCC3)c(=O)n(Cc3ccccc3)c2=O)cc1C | 288 | 95.4 | 30 (≈ 12.1 µg/mL) | 83.4 |
| Cc1ccc(-n2nc(C(=O)N3CCCCC3)c(=O)n(Cc3ccc(F)cc3)c2=O)cc1C | 771 | 94.1 | 96 (≈ 41.9 µg/mL) | 63.8 |

| SMILES | IC50 (MDA-MB-231 [1]) [nM] | inhibition at 20 µM (MDA-MB-231 [2]) [%] | solubility kinetic [3] [µM] | inhibition at 1 µM (MDA-MB-231 [4]) [%] |
| --- | --- | --- | --- | --- |
| Cc1ccc(-n2nc(C#N)c(=O)n(Cc3ccccc3)c2=O)cc1C |  | 96.4 |  | 58.1 |
| Cc1ccc(-n2nc(C(=O)N3CC(NC(=O)OC(C)(C)C)C3)c(=O)n(Cc3cccc(F)c3)c2=O)cc1C |  | 73 |  |  |
| Cc1ccc(-n2nc(C(=O)N3CCCCCC3)c(=O)n(Cc3ccccc3)c2=O)cc1C | 45.9 | 99.7 | 62 (≈ 26.8 µg/mL) | 96 |
| CCOC(=O)N1CCN(C(=O)c2nn(-c3ccc(C)c(C)c3)c(=O)n(Cc3cccc(F)c3)c2=O)CC1 |  | 95.5 |  |  |
| Cc1ccc(-n2nc(C(=O)N3CC(N(C)C(=O)OC(C)(C)C)C3)c(=O)n(Cc3cccc(F)c3)c2=O)cc1C |  | 98.5 |  |  |
| Cc1ccc(-n2nc(C(=O)N3CCC[C@H](CNC(=O)OC(C)(C)C)C3)c(=O)n(Cc3cccc(F)c3)c2=O)cc1C | 261 | 99.9 | 24 (≈ 13.6 µg/mL) | 92.2 |
| Cc1ccc(-n2nc(C(=O)N3CCCCC3)c(=O)n(Cc3ccccc3F)c2=O)cc1C | 94.1 | 99.2 | 20 (≈ 8.73 µg/mL) | 93.5 |
| Cc1ccc(-n2nc(C(=O)N3CCNCC3)c(=O)n(Cc3ccccc3)c2=O)cc1C | > 1000 | 96.7 |  |  |
| Cc1ccc(-n2nc(C(=O)N3CCOCC3)c(=O)n(Cc3ccccc3)c2=O)cc1C | 659 | 95.8 | 44 (≈ 18.5 µg/mL) | 70.1 |
| Cc1ccc(-n2nc(C(=O)N3CCCN(C(=O)OC(C)(C)C)C3)c(=O)n(Cc3cccc(F)c3)c2=O)cc1C |  | 96 | 54 (≈ 29 µg/mL) | 39.9 |
| Cc1ccc(-n2nc(C(=O)N3CCC[C@@H](NC(=O)OC(C)(C)C)C3)c(=O)n(Cc3cccc(F)c3)c2=O)cc1C | 478 | 98.3 | 129 (≈ 71.2 µg/mL) | 74.1 |
| Cc1ccc(-n2nc(C(=O)N3CCC[C@@H](CNC(=O)OC(C)(C)C)C3)c(=O)n(Cc3cccc(F)c3)c2=O)cc1C | 232 | 99.3 | 57 (≈ 32.2 µg/mL) | 92.1 |
| Cc1ccc(-n2nc(C(=O)NCc3ccccn3)c(=O)n(Cc3ccccc3)c2=O)cc1C |  | 71.2 |  |  |
| Cc1ccc(-n2nc(C#N)c(=O)n(Cc3ccc(F)cc3)c2=O)cc1C |  | 93.6 |  | -1.93 |
| Cc1ccc(-n2nc(C(=O)N3CCC(F)CC3)c(=O)n(Cc3ccccc3)c2=O)cc1C | 132 | 99.3 | 57 (≈ 24.9 µg/mL) | 89.5 |
| Cc1ccc(-n2nc(C(=O)NCCN(C)C)c(=O)n(Cc3ccccc3)c2=O)cc1C | > 1000 | 97.7 |  |  |
| Cc1ccc(-n2nc(C#N)c(=O)n(Cc3ccccc3F)c2=O)cc1C |  | 93.5 |  | -3.59 |
| Cc1ccc(-n2nc(C(=O)N3CCN(c4ccccc4)CC3)c(=O)n(Cc3ccccc3)c2=O)cc1C |  | 79 |  |  |
| CCn1c(=O)c2cc(C(N)=O)c(N)nc2n(C2CC2)c1=O |  | 4.67 |  |  |
| Cc1ccc(-n2nc(C(=O)N3CCCN(C(=O)OC(C)(C)C)CC3)c(=O)n(Cc3cccc(F)c3)c2=O)cc1C | 611 | 98.3 | 41 (≈ 22.6 µg/mL) | 71.1 |
| Cc1ccc(-n2nc(C(=O)NC3CCN(Cc4ccccc4)CC3)c(=O)n(Cc3ccccc3)c2=O)cc1C |  | 74.9 |  |  |
| CC#CCn1c(=O)c(C#N)nn(-c2ccc(C)c(C)c2)c1=O |  | 85.5 | 71 (≈ 20.9 µg/mL) |  |
| COc1cccc(Cn2c(=O)c(C#N)nn(-c3ccc(C)c(C)c3)c2=O)c1 |  | 97.4 | 103 (≈ 37.3 µg/mL) | 48.9 |
| Cc1ccc(-n2nc(C#N)c(=O)n(Cc3cccc(F)c3)c2=O)cc1C |  | 91.1 | 15 (≈ 5.26 µg/mL) | 23.2 |
| Cc1ccc(-n2nc(C(=O)N3C4CCC3CN(C(=O)OC(C)(C)C)C4)c(=O)n(Cc3cccc(F)c3)c2=O)cc1C |  | 14.5 | 99 (≈ 55.8 µg/mL) |  |
